Data as given in paper PMC7203957 (ACS Omega, 2020).
Where “and” joins values, the source holds several entries; their conditions need not be identical. Equal entries are not always repeated. One block for each compound: values may come before it.

Key:
E. coli ATCC 25922 = assay: Minimum inhibitory concentration; assay type: cell-based; details: without efflux pump inhibitor
S. aureus ATCC 29213 = assay: Minimum inhibitory concentration; assay type: cell-based
GyrB (1–220) = GyrB (1–220) (Escherichia coli, UniProt P0AES6); assay: Isothermal titration calorimetry; assay type: binding, E. coli; details: for exothermic / thermodynamic signal in ITC: fragment screening, result in words
HepG2 cytotoxicity = assay type: cell-based; details: human, HepG2 (ATCC HB-8065) cells
[1] = Solubility test for ITC measurement; assay type: physicochemical; details: DMSO (40–200 mM) and assay (ITC) buffer

SMILES: CNc1cccc2ccc(=O)[nH]c12 [Compound 2d, 8-(Methylamino)quinolin-2(1H)-one]
ITC ΔH (GyrB (1–220); Table 2 fragments): −6.14 kcal/mol and -6.14^b kcal/mol

SMILES: Nc1cccc2ccc(=O)[nH]c12 [Compound 2u, 8-aminoquinolin-2(1H)-one]
exothermic / thermodynamic signal in ITC (GyrB (1–220)): no exothermic effects

SMILES: CCNc1cccc2ccc(=O)[nH]c12 [Compound 2q, 8-(ethylamino) quinolin-2(1H)-one]
exothermic / thermodynamic signal in ITC (GyrB (1–220)): no exothermic effects

SMILES: CNc1cccc2cc(C(=O)Nc3ccccc3)c(=O)[nH]c12 [Compound 13, 8-(Methylamino)-2-oxo-N-phenyl-1,2-dihydroquinoline-3-carboxamide]
Solubility for ITC measurement [1]: low solubility

More lines, main results first:

MIC E. coli ATCC 25922 (E. coli ATCC 25922): no antibacterial activity
MIC S. aureus ATCC 29213 (S. aureus ATCC 29213): no antibacterial activity
SMILES: CNc1cccc2cc(C(=O)NCc3ccc(C(=O)O)cc3)c(=O)[nH]c12 [Compound 13f, 4-({[8-(Methylamino)-2-oxo-1,2-dihydroquinoline-3-carbonyl]amino}methyl)benzoic Acid]

ITC ΔH (GyrB (1–220); Table 3): -13.2 kcal/mol
MIC E. coli ATCC 25922 (E. coli ATCC 25922): no antibacterial activity
MIC S. aureus ATCC 29213 (S. aureus ATCC 29213): no antibacterial activity
SMILES: CNc1cccc2cc(C(=O)NCCc3cccc(C(=O)O)c3)c(=O)[nH]c12 [Compound 13c, 3-(2-{[8-(Methylamino)-2-oxo-1,2-dihydroquinoline-3-carbonyl]amino}ethyl)benzoic Acid]

ITC ΔH (GyrB (1–220); Table 3): -13.7 kcal/mol
SMILES: CNc1cccc2cc(C(=O)Nc3ccc(C(=O)O)cc3)c(=O)[nH]c12 [Compound 13e, 4-{[8-(Methylamino)-2-oxo-1,2-dihydroquinoline-3-carbonyl]amino}benzoic Acid]
cytotoxicity at 48 h, 50 µM (HepG2 cytotoxicity): 8.4%

ITC ΔH (GyrB (1–220); Table 3): -12.9 kcal/mol
SMILES: CNc1cccc2cc(C(=O)Nc3cccc(C(=O)O)c3)c(=O)[nH]c12 [Compound 13a, 3-{[8-(Methylamino)-2-oxo-1,2-dihydroquinoline-3-carbonyl]amino}benzoic Acid]
